The text below walks through data of US20120178177A1, “Biological Components Within the Cerebrospinal Fluid” (priority 2009, published 2012).

In assay [1] the test system is SH-SY5Y cells. The experiment in a line: Quantification of Annexin V-positive MPs released by differentiated SH-SY5Y cells (flow cytometry). Format: cell-based, human. The following applies: 24 hours treatment, Staurosporine 100 and 500 nM vs vehicle DMSO 0.1%, FIG. 5A. As for the experimental part: (§1) The SH-SY5Y cells were maintained and differentiated in cell culture conditions as described under the Materials & Methods section of Example 2. Cells were then treated for 24 hours with Staurosporine at two different concentrations or with vehicle only. At the end of the treatment, culture medium was collected and MPs were isolated and subsequently quantified by flow cytometry. Those results are representative of several independent experiments. The resulting MPs populations have been isolated and characterized by flow cytometry (A) or by two-dimensional gel electrophoresis (B) as described in the Materials and Methods section. The three gels have been compared in an area comprised between approximately 10-60 kDa and pl 3.0 to 7.0. The boxes (named C, 1, and 2) define specific areas of interest in the captured images.
The human neuronal cell line SH-SY5Y (ATCC CRL-2266) was cultured in MEM/Ham's F12 medium (1:1) supplemented with 10% foetal bovine serum. Cells were seeded at 55,000 cells/cm^2. Cell differentiation was induced by adding 9-cis retinoic acid (5 μM) for 5 days directly to complete culture medium. After 5 days, medium was replaced with complete medium supplemented with BDNF (50 ng/ml) for additional 5 days. […]
MPs quantifications were performed by flow cytometry using fluorescein-labelled, His-tagged Annexin V, as indicated in Example 1 for CS-MPs and Plasma MPs.

In assay [2] the test system is SH-SY5Y cells. As to the kind of experiment: Two-dimensional gel electrophoresis of MPs from SH-SY5Y cells. Format: cell-based, human. The following applies: MPs from SH-SY5Y cells treated with Staurosporine 100 and 500 nM vs vehicle; FIG. 5B. As for the experimental part: as §1
The human neuronal cell line SH-SY5Y (ATCC CRL-2266) was cultured in MEM/Ham's F12 medium (1:1) supplemented with 10% foetal bovine serum. Cells were seeded at 55,000 cells/cm^2. Cell differentiation was induced by adding 9-cis retinoic acid (5 μM) for 5 days directly to complete culture medium. […]
MPs populations were obtained from Staurosporine-induced SH-SY5Y cells as indicated above. […] Non-protein impurities were removed using the ReadyPrep 2D Cleanup kit prior to isoelectrofocalisation (IEF) steps. […]

For assay [3], the system named is IL1beta. The experiment in a line: Gene expression of inflammatory markers in rat brain after intracerebroventricular injection (RT-QPCR). Format: in vivo. The following applies: LPS 50 μg/animal intracerebroventricular; rat brain (cortex, striatum, hippocampus); relative to 36B4 mRNA. Here is the method: (§2) This experiment was elaborated on the basis of protocols described in previous publications (Sanna P et al., 1995). Briefly, male SD rats (225-250 g, CERJ, France) were anesthetized with pentobarbital (55 mg/kg) and positioned in a stereotaxic frame. Then, they received an intracerebroventricular injection of LPS (50 μg/animal in 3.3 μl of saline buffer) or saline (NaCl 0.9%) using a Kopf apparatus. The coordinates for the sterotaxic injections were −2.3 mm dorsal/ventral, −1.4 mm lateral, and −0.6 mm anterior/posterior from the bregma.
(§3) Total RNA was extracted using Qiagen RNA extraction kits following manufacturer's instructions. Total RNA was treated with DNase I (Ambion Inc., Austin, Tex., USA) at 37° C. for 30 minutes, followed by inactivation at 75° C. for 5 minutes. Real time quantitative PCR (RT-QPCR) assays were performed using an Applied Biosystems 7900 sequence detector. Total RNA (1 μg) was reverse transcribed with random hexamers using Taqman reverse-transcription reagents kit (Applied Biosystems) following the manufacturer's protocol. Gene expression levels were determined by Sybr green assays. 36B4 transcript was used as an internal control to normalize the variations for RNA amounts. Gene expression levels are expressed relative to 36B4 mRNA levels.
(§4) The specific primers used for the quantification were: […]

The subject of assay [4] is TNFalpha. The description is as above. Format: in vivo. The following applies: LPS 50 μg/animal intracerebroventricular; rat brain (cortex, striatum, hippocampus); relative to 36B4 mRNA. Here is the method: as §2, §3, §4
Assay [5] concerns male SD rats. The experiment in a line: Quantification of rat CS-MPs in CSF by Annexin V flow cytometry after intracerebroventricular injection. Format: in vivo. The following applies: LPS 50 μg/animal intracerebroventricular vs saline; CSF from cisterna magna after 24 hours; FIG. 3A. Here is the method:
(§5) Two groups of male SD rats (n=8 for each group) were intracerebroventricularly injected with either vehicle (Saline; NaCl 0.9%) or a test substance (Lipopolysaccharides; LPS). After 24 hours, CSF was collected directly in the cisterna magna and blood was obtained by retro-orbital puncture from each animal. CS-MPs and plasma MPs populations were prepared as described in the Materials & Methods of Example 1 and the concentrations of CS-MPs (A) and Plasma MPs (B) populations in the samples were quantified for both groups of animals by flow cytometry. Data are expressed as Mean±SEM (*: p<0.05). […] In a control experiment (C), the CSF and blood samples were collected respectively in the cisterna magna and by retro-orbital, puncture from healthy male SD rats (n=8). CS-MPs and Plasma MPs populations were prepared as described in the Materials & Methods section of Example 1 and then quantified by flow cytometry. Data are expressed as Mean±SEM (*: p<0.05). […]
(§6) The quantifications were performed using a FC500 flow cytometer (Beckman-Coulter, France) by incubating for 30 minutes in the dark each samples (30 μl) with 60 ng of His-tagged, Fluorescein-labelled Annexin V in incubation buffer (2.5 mM CaCl2, 140 mM NaCl, 10 mM HEPES pH 7.4). […] Each sample was then analyzed by flow cytometry. […]
(A flow cytometer gives signals particle by particle.)

Assay [6] deals with male SD rats. The experiment in a line: Quantification of rat Plasma MPs by Annexin V flow cytometry after intracerebroventricular injection. Format: in vivo. Particulars: LPS 50 μg/animal intracerebroventricular vs saline; plasma after 24 hours; FIG. 3B. Here is the method:
as §5, §6

On to `CN[C@@H]1C[C@H]2O[C@@](C)([C@@H]1OC)n1c3ccccc3c3c4c(c5c6ccccc6n2c5c31)C(=O)NC4` [Staurosporine], for which, in assay [1], the “change in Annexin V-positive MPs in cell culture medium” value is “significant and dose-dependent increase”. In addition, the “protein content of MPs on two-dimensional gel” value in assay [2] is recorded as “evident enrichment in proteins”.

As for Lipopolysaccharides [LPS], the “induction of IL1beta gene expression” value in assay [3] was 40 fold. Moreover, the “induction of TNFalpha gene expression” value in assay [4] is 6 fold. The “induction of CS-MP levels” value in assay [5] is 3 fold. The “change of Plasma MPs” value in assay [6] was “without a simultaneous and significant increase”.
